Data published in ChEMBL document CHEMBL1132676, “Resolution of a CPzI precursor, synthesis and biological evaluation of (+) and (-)-N-Boc-CPzI: a further validation of the relationship between chemical solvolytic stability and cytotoxicity” (Bioorg Med Chem Lett, 1999).

Assays:
[1] = The compound was evaluated for the chemical solvolytic stability at a pH 3; assay type: physicochemical; conditions: buffer
L1210 = assay: In vitro cytotoxicity against L1210 murine leukemia cell lines; assay type: functional, cell-based; conditions: Mus musculus

| half-life [1] [h] | SMILES | IC50 (L1210) [nM] | T1/2 [1] [h] |
| --- | --- | --- | --- |
| 110 | Cc1n[nH]c2c1C13CC1CN(C(=O)OC(C)(C)C)C3=CC2=O (centres undefined) | 370 | – |
| – | Cc1c[nH]c2c1[C@@]13C[C@@H]1CN(C(=O)OC(C)(C)C)C3=CC2=O | – | 37 |
| – | Cc1n[nH]c2c1[C@@]13C[C@@H]1CN(C(=O)OC(C)(C)C)C3=CC2=O | 206 | – |
| 133 | CC(C)(C)OC(=O)N1C[C@H]2C[C@@]23C1=CC(=O)c1ccccc13 | 80 | – |
| – | Cc1n[nH]c2c1[C@]13C[C@H]1CN(C(=O)OC(C)(C)C)C3=CC2=O | 923 | – |

| SMILES | half-life [1] [h] | IC50 (L1210) [nM] | T1/2 [1] [h] |
| --- | --- | --- | --- |
| COC(=O)c1cc2c([nH]1)C(=O)C=C1N(C(=O)OC(C)(C)C)C[C@H]3C[C@]123 | 177 | 6 | – |
